Assay results taken from PubChem BioAssay AID651745 (NMMLSC, 2012).
Calls of active or inactive are those of the source.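 The calls were made as follows: active = GFP positive cell share at least 15% at top dose plus 60%-effect dose below 60 µM; inactive = the rest.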

Assay: promoters of myeloid differentiation, HoxA9-arrested cells, dose response, cell-based, lysozyme-GFP, flow cytometry, Cherry Pick01 (AID 651745)
Conditions: ER-HoxA9 myeloid progenitors, lysozyme-GFP differentiation, flow cytometry; at 2.19 µM (top of the series)

| Structure (SMILES) | percent GFP positive (differentiation) |
| --- | --- |
| Cn1c(=O)c2cc(NC(=O)NCc3ccc(F)cc3)ccc2n1C/C=C/c1ccccc1 | 1.7% (inactive) |

Same assay, conditions: ER-HoxA9 myeloid progenitors, lysozyme-GFP differentiation, flow cytometry; at 4.37 µM (top of the series)

| Structure (SMILES) | percent GFP positive (differentiation) |
| --- | --- |
| O=C(NCc1ccccc1)C1=C[C@@H](c2csc3ccccc23)C[C@@H](OCc2ccc(CO)cc2)O1 | 1.2% (inactive) |
| Cc1nn(-c2ccccc2)c(N2CCCC2)c1/C=N/NC(=S)Nc1ccccc1F | 2.2% (inactive) |
| Clc1ccc(Cn2ncc3c(N4CCN(c5ccccc5)CC4)ncnc32)cc1 | 1.8% (inactive) |

Same assay, conditions: ER-HoxA9 myeloid progenitors, lysozyme-GFP differentiation, flow cytometry; at 6.6 µM (top of the series)

| Structure (SMILES) | percent GFP positive (differentiation) |
| --- | --- |
| COc1ccc(NC2=C(NC(C)=O)C(=O)c3ccccc3C2=O)cc1 | 20.3% (inactive) |
| c1cc(SC2CCCCC2)cc(-c2nc3cnccn3c2NC2CCCCC2)c1 | 4.8% (inactive) |
| Cn1cc(-c2cnc3c(NC=O)cc(-c4cccc(C(F)(F)F)c4)cn23)cn1 | 2.3% (inactive) |
| CCOC(=O)c1c(NC(=O)C(C)OC(=O)c2ccc(NC(=O)CC#N)cc2)sc2c1CCCC2 (centres undefined) | 1.6% (inactive) |
| Brc1ccc(-c2csc3[n+]2CCCCC3)cc1 | 9.9% (inactive) |

Same assay, conditions: ER-HoxA9 myeloid progenitors, lysozyme-GFP differentiation, flow cytometry; at 13.2 µM (top of the series)

| Structure (SMILES) | percent GFP positive (differentiation) |
| --- | --- |
| COC(=O)C1=C(c2cc3ccccc3s2)C[C@@H]2CC[C@H]1N2C(=O)NC1CCCCC1 | 4.3% (inactive) |
| CCCCOc1ccc(OC(=O)Nc2cc(Cl)ccc2OC)cc1 | 2.55% (inactive) |
| CCC1(c2ccc(F)cc2)NC(=O)N(CC(=O)N2CCN(S(=O)(=O)c3ccc(C)cc3C)CC2)C1=O (centres undefined) | 1.95% (inactive) |
| CCOC(=O)c1c(NC(=O)C(C)Sc2cccc[n+]2[O-])sc2c1CCN(Cc1ccccc1)C2 (centres undefined) | 1.7% (inactive) |
| CCCc1nc2c3ccccc3ccn2c1Cc1ccc(OC)cc1C | 2.2% (inactive) |
| O=CNc1ccc2c3c(cccc13)-c1ccccc1-2 | 1.9% (inactive) |
| CN(Cc1ccc(Cl)c(Cl)c1)C(=O)C1=CC=CN2CCS(=O)(=O)N=C12 | 6.5% (inactive) |
| COc1ccc(/C=C/C(O)=C2/C(=O)N(C)C3(C)CC2c2ccccc2O3)cc1 (centres undefined) | 5.7% (inactive) |
| C=CCN(c1ccccc1OC)S(=O)(=O)c1ccc(Cl)c(C(=O)NCc2ccco2)c1 | 2.5% (inactive) |
| C[n+]1c(/C=C/c2ccc3c(c2)OCO3)ccc2ccccc21 | 3.3% (inactive) |
| CNC(=O)c1c(NC(=O)c2ccc(S(=O)(=O)N3CCCc4ccccc43)cc2)sc2c1CCN(C)C2 | 4.8% (inactive) |
| Nc1ccc(C#Cc2ccc3c(=O)c4ccccc4oc3c2)cc1 | 15.2% (inactive) |
| CCCN1CCc2c(sc(NC(=O)c3ccc(S(=O)(=O)N(C)c4ccccc4)cc3)c2C(=O)NC)C1 | 89.5% (inactive) |

Same assay, conditions: ER-HoxA9 myeloid progenitors, lysozyme-GFP differentiation, flow cytometry; at 19.9 µM (top of the series)

| Structure (SMILES) | percent GFP positive (differentiation) |
| --- | --- |
| O=C(CCCN1C(=O)/C(=C/c2ccco2)SC1=S)Nc1cccc(C(=O)O)c1 | 7.4% (inactive) |
| COc1ccc(-n2c(C)cc(/C=C3\SC(=S)N(Cc4ccco4)C3=O)c2C)cc1 | 7.7% (inactive) |
| C/C(N)=C(/C#N)C(=O)COC(=O)c1cc(C)n(-c2ccc(F)cc2)c1C | 10.9% (inactive) |
| Cn1c(-c2ccccc2)c[n+]2c1-c1ccccc1C2 | 3.8% (inactive) |
| O=c1[nH][nH]cc1C=Nc1ccccc1O | 2.8% (inactive) |
| CCOC(=O)C1=C(CN2CCc3ccccc32)NC(=O)NC1c1cccc([N+](=O)[O-])c1 (centres undefined) | 10.5% (inactive) |
| CCC(CO)n1c(SCc2cc(=O)oc3cc(C)ccc23)nc2ccccc2c1=O (centres undefined) | 2.7% (inactive) |
| COc1ccccc1NC(=O)c1cccc(S(=O)(=O)N2CCN(c3ccccc3)CC2)c1 | 4.3% (inactive) |
| Cc1cccn2c(=O)c(/C=C3\SC(=S)NC3=O)c(NCCCN3CCOCC3)nc12 | 33% (inactive) |
| Cc1ccc(OCc2nnc(SCc3nc4ccccc4[nH]3)n2Cc2ccco2)cc1 | 3.4% (inactive) |

Same assay, conditions: ER-HoxA9 myeloid progenitors, lysozyme-GFP differentiation, flow cytometry; at 39.8 µM (top of the series)

| Structure (SMILES) | percent GFP positive (differentiation) |
| --- | --- |
| COc1ccc(Cn2nnnc2CN2CCc3ccccc32)cc1 | 1.9% (inactive) |
| Cc1cccc(N2CCN(C(=O)c3ccc4c(c3)OCCO4)CC2)c1C | 2.1% (inactive) |
